Values of other authors as cited in patent US20050158402A1, “Preparation of Chinese herbal composite recipe used in environmental sanitation” (priority 2004, published 2005).
“Also recorded” adds a separate entry of the source.

Experiments:
Staphylococcus aureaus = conditions: 1% matrine, in vitro
Proteus = conditions: 1% matrine, in vitro
B-streptococcus = conditions: 1% matrine, in vitro
Shigella = conditions: 1% matrine, in vitro
E. Coli = conditions: 1% matrine, in vitro
[1] = test system: type A hemolytic Streptococcus
Shigella species = conditions: in vitro

O=C1CCC[C@@H]2[C@H]3CCCN4CCC[C@@H](CN12)[C@@H]34 [matrine]
bacteria inhibitive effects on Staphylococcus aureaus (Staphylococcus aureaus): bacteria inhibitive effects on Shigella, E. Coli, Proteus,
bacteria inhibitive effects on Proteus (Proteus): bacteria inhibitive effects on Shigella, E. Coli, Proteus,
bacteria inhibitive effects on B-streptococcus (B-streptococcus): bacteria inhibitive effects on Shigella, E. Coli, Proteus,
bacteria inhibitive effects on Shigella (Shigella): bacteria inhibitive effects on Shigella, E. Coli, Proteus,
bacteria inhibitive effects on E. Coli (E. Coli): bacteria inhibitive effects on Shigella, E. Coli, Proteus,

Cc1cc(O)c(C(=O)CCC(C)C)c(=O)o1 [pogostone]
inhibit the growth of fungi such as Penicillum (Penicillum): 22(7): 318) The pogostone can inhibit the growth of fungi
inhibitive effects on Cryptococcus neoformans (Cryptococcus neoformans): The pogostone show apparently inhibitive effects on fungi
inhibitive effect on type A hemolytic Streptococcus [1]: stolonifer. It shows certain degree of inhibitive effect on type
inhibitive effects on C. albicans (C. albicans): The pogostone show apparently inhibitive effects on fungi
inhibitive effects on Rhizopus stolonifer (Rhizopus stolonifer): The pogostone show apparently inhibitive effects on fungi

CC[C@@H]1[C@H]2CCCCN3[C@H]2[C@H](C[C@H]3[C@@H]2C[C@H](C)C(=O)O2)[C@@H]2[C@H]1OC(=O)[C@H]2C [tuberostemonine]
paralyze Ascarid (Ascarid): can paralyze

C/C(=C/CC[C@]1(C)C2C[C@@H]3[C@H](C2)C31C)CO [α - santol]
anti-bacteria effects (bacteria): The α - santol and β -santol show stronger anti-bacteria

C=C1[C@@H]2CC[C@@H](C2)[C@@]1(C)CC/C=C(/C)CO [β -santol]
anti-bacteria effects (bacteria): The α - santol and β -santol show stronger anti-bacteria

evodiamine
anti-viruses effect on rats infected by Columbia SK viruses (Columbia SK viruses): anti-viruses effect; also recorded: anti-virus effect

santol
effective to Shigella species (Shigella species): effective
